Data published in publication PMC11647683, “Structural Aspects of Mycobacterium tuberculosis DNA Gyrase Targeted by Novel Bacterial Topoisomerase Inhibitors” (ACS Medicinal Chemistry Letters, 2024).

System: M. tuberculosis LP-FQ-RM9
Format: cell-based, Mycobacterium tuberculosis
Conditions: for IC90: read-out: Antituberculosis activity M. tuberculosis LP-FQ-RM9 IC90; for IC50: read-out: Antituberculosis activity M. tuberculosis LP-FQ-RM9 IC50

Structure (SMILES) | IC90 [nM] | IC50 [nM] | activity against the fluoroquinolone-resistant strain (result in words)
COc1ccc2nccc(CCN3CCC(NCc4cc(F)c(Br)c(F)c4)CC3)c2n1 [Compound 4] | 260 |  | 
COc1ccc2nccc(CCN3CCC(NCc4ccc(Br)c(F)c4)CC3)c2n1 [Compound 1] | 520 ± 145 | 380 ± 50 | 
C[C@H]1COc2c(N3CCN(C)CC3)c(F)cc3c(=O)c(C(=O)O)cn1c23 [Levofloxacin, reference compound] | > 10000 | > 10000 | no activity was observed
COc1ccc2nccc(CCN3CCC(NCc4cc(F)c(Cl)c(F)c4)CC3)c2n1 [Compound 3] | 430 | 290 | 
COc1ccc2nccc(C(O)CC3CCC(NCc4cc(F)c(Br)c(F)c4)CC3)c2n1 (centres unmarked) [Compound 5] | 1000 ± 75 |  | 
COc1ccc2nccc(CCN3CCC(NCc4ccc(I)c(F)c4)CC3)c2n1 [Compound 2] | 580 ± 180 | 420 ± 80 | 
